test: RP, Thermo Scientific Hypersil GOLD, 150 × 2.1 mm, 1.9 µm, 0.5 mL/min, estimated dead time 0.66 min; A: water + 0.1% formic acid, pH 3; B: acetonitrile + 0.1% formic acid, pH 3; gradient (min/%B) 0/0 2/0 13/100 15.5/100 19/0; conditions: stereoisomer not certain

Compound	LC retention time [min]
Cc1cc2c(cc1C)N(CC(O)C(O)C(O)COP(=O)(O)O)c1[nH]c(=O)[nH]c(=O)c1N2 (configuration not stated) [FMNH]	5.7
O=C(O)Cc1c[nH]c2ccc(O)cc12 [5-hydroxyindoleacetic acid]	5.7
CC(=O)Nc1ccc(O)cc1 [acetaminophen]	4.9
CC12CCC(=O)C=C1CCC1C2CCC2(C)C(OC3OC(C(=O)O)C(O)C(O)C3O)CCC12 (configuration not stated) [testosterone glucuronide]	7.9
NC(N)=NCCCC(N)C(=O)O (configuration not stated) [arginine]	0.9
CC12CCC3C(CCC4CC(OC5OC(C(=O)O)C(O)C(O)C5O)CCC43C)C1CCC2=O (configuration not stated) [androsterone glucuronide]	8.6
CC(C)(CCC(=O)O)C(=O)O [2,2-dimethylglutaricacid]	6
Cc1ccc(C(=O)NCC(=O)O)cc1 [4-methylhippuric acid (para-methylhippuric acid)]	6.7
Cc1cnc(=O)[nH]c1N [5-methylcytosine]	1
CC(=O)NC(Cc1ccccc1)C(=O)O (configuration not stated) [N-acetylphenylalanine]	6.6
CCC(CCCCCC(=O)O)C(=O)O (configuration not stated) [2-ethylsuberic acid]	6.7
NCCc1c[nH]c2ccccc12 [tryptamine]	5.7
CC(=O)Nc1ccn(C2OC(CO)C(O)C2O)c(=O)n1 (configuration not stated) [N4-acetylcytidine]	4.6
[NH3+]CCCCCC(=O)[O-] [6-aminocaproic acid]	1
CC(C)C(=O)NCC(=O)O [N-isobutyrylglycine]	4.1
CC(=O)NCCC(=O)NC(Cc1cnc[nH]1)C(=O)O (configuration not stated) [N-acetylcarnosine]	1.1
CC(C)CC(=O)C(=O)O [4-methyl-2-oxovaleric acid (ketoleucine)]	5.7
Cn1c(=O)c2[nH]c(=O)[nH]c2n(C)c1=O [1,3-dimethyluric acid]	4.7
Cc1ncc(CO)c(C(=O)O)c1O [4-pyridoxic acid]	5.6
OCc1cccc(O)c1 [3-hydroxybenzyl alcohol]	5.1
CNc1nc2c(ncn2C2OC(CO)C(O)C2O)c(=O)[nH]1 (configuration not stated) [N2-methylguanosine]	4.4

Compound	LC retention time [min]
CC(=O)NC(CC(=O)O)C(=O)O (configuration not stated) [N-acetylaspartic acid]	1.1
CC(=O)NC(C)C(=O)O (configuration not stated) [acetylalanine]	1.8
Nc1ccc(O)cc1 [4-aminophenol]	1.1
NC(CCCC(=O)O)C(=O)O (configuration not stated) [2-aminoadipic acid]	1.1
Cn1c(=O)[nH]c2[nH]c(=O)n(C)c2c1=O [1,7-dimethyluric acid]	5
CC(C)(O)CC(=O)O [3-hydroxy-3-methylbutyric acid (3-hydroxyisovaleric acid)]	4.2
CC(=O)Nc1ccc(OC2OC(C(=O)O)C(O)C(O)C2O)cc1 (configuration not stated) [acetaminophene glucuronide]	4.2
CCCCCC=CCC=CCCCCCCCC(=O)OCC(O)COP(=O)([O-])OCC[N+](C)(C)C (configuration not stated) [1-linoleoylglycerophosphocholine GPCho(18:2)]	11.2
[NH3+]CC(=O)N1CCCC1C(=O)[O-] (configuration not stated) [Gly-Pro]	1.1
N[C@@H](Cc1c[nH]c2ccccc12)C(=O)O [L-tryptophan]	0.8
CCC(C)(O)C(=O)O (configuration not stated) [2-hydroxy-2-methylbutyric acid (2-hydroxyisovaleric acid)]	4.6
OCc1ccccc1O [2-hydroxybenzyl alcohol]	5.8
O=C1CCNC(=O)N1 [5,6-dihydrouracil]	1.1
C[N+](C)(C)CC(CC(=O)[O-])OC(=O)CCCCC(=O)O (configuration not stated) [adipoylcarnitine]	5.3
CCCCCCCCC=CCCCCCCCC(=O)OCC(O)COP(=O)([O-])OCC[N+](C)(C)C (configuration not stated) [1-oleoylglycerophosphocholine LysoPC(18:1)]	12
CN(C)c1nc2c(ncn2C2OC(CO)C(O)C2O)c(=O)[nH]1 (configuration not stated) [N,N-dimethylguanosine]	4.8
CC(=O)NCCCNCCCCN [N1-acetylspermidine]	0.9
CC(=O)NCCCCN [N-acetylputrescine]	1.1
CSCC(O)C(O)C(O)C=O (configuration not stated) [5-methylthioribose]	1.1
Nc1ncnc2c1ncn2C1OC(CO)C(O)C1O (configuration not stated) [adenosine]	1.1
CC(=O)NCCc1c[nH]c2ccc(O)cc12 [N-acetyl-5-hydroxytryptamine (N-acetyl-serotonin)]	5.8

The remaining lines, values ahead:

LC retention time [min]	Compound
0.9	CN1CC(=O)NC1=N [creatinine]
1.2	O=c1cc[nH]c(=O)[nH]1 [uracil]
0.8	NC(Cc1cnc[nH]1)C(=O)O (configuration not stated) [histidine]
9	CCCCCCCCCC(=O)OC(CC(=O)[O-])C[N+](C)(C)C (configuration not stated) [decanoylcarnitine]
4.4	NC(Cc1ccccc1)C(=O)O (configuration not stated) [phenylalanine]
6.3	COC(=O)CCCCC(=O)O [mono-methyl-adipate]
5.6	Cn1c(=O)c2c(ncn2C)n(C)c1=O [caffeine]
0.9	C[n+]1cccc(C(=O)[O-])c1 [trigonelline]
0.9	NCCS(=O)(=O)O [taurine]
7.6	O=C(O)CCCCCCCCC(=O)O [sebacic acid]
4.9	O=C(O)CNC(=O)c1ccc(O)cc1 [p-hydroxyhippuric acid]
6.1	O=C(O)CNC(=O)c1cccc(O)c1 [m-hydroxyhippuric acid]
0.9	C[N+](C)(C)[O-] [trimethylamine oxide]
0.9	OCC1OC(O)C(O)C(O)C1O (configuration not stated) [hexose]
1.1	Nc1nc2nc[nH]c2c(=O)[nH]1 [guanine]
5.2	CC=C(C)C(=O)NCC(=O)O [tiglylglycine]
1.04	O=C(O)CC(=O)O [malonic acid]
5.2	O=C(O)c1cc(=O)c2cccc(O)c2[nH]1 [xanthurenic acid]
4.5	OCC1NCC(O)C(O)C1OC1OC(CO)C(O)C(O)C1O (configuration not stated) [glucopyranosylmoranoline]
1.1	CN1C(=O)C(O)CC1c1cccnc1 (stereo not drawn) [trans-3-hydroxycotinine]
1.1	O=C(O)c1cccnc1 [nicotinic acid]
5.8	O=C(O)CNC(=O)c1ccccc1 [hippuric acid]
7.6	CCOC(=O)c1ccccc1C(=O)O [monoethyl phthalate]
1.1	CC(C)CC(N)C(=O)O (configuration not stated) [leucine]
1.1	CSCCC(N)C(=O)O (configuration not stated) [methionine]
4.8	O=C(O)CC(Nc1ncnc2c1ncn2C1OC(CO)C(O)C1O)C(=O)O (configuration not stated) [succinyladenosine]
6.5	O=C(O)CNC(=O)c1ccccc1O [o-hydroxyhippuric acid]
1.1	O=c1[nH]cnc2nc[nH]c12 [hypoxanthine]

LC retention time [min]	Compound
0.9	O=CCC(O)C(O)CO (configuration not stated) [deoxyribose]
6.1	NC(=O)CCC(NC(=O)Cc1c[nH]c2ccccc12)C(=O)O (configuration not stated) [indoleacetyl glutamine]
9.6	CC12CCC(=O)C=C1CCC1C2CCC2(C)C(C(=O)CO)CCC12 (configuration not stated) [deoxycorticosterone]
6.1	CCCCCCCC(C(=O)O)C(=O)O [heptylmalonic acid]
1.1	NC(=O)c1cccnc1 [nicotinamide]
4.3	O=c1[nH]c(=O)c2ncn(C3OC(CO)C(O)C3O)c2[nH]1 (configuration not stated) [xanthosine]
7.3	CCCCCC=CC(=O)OC(CC(=O)[O-])C[N+](C)(C)C (configuration not stated) [octenoylcarnitine]
8.1	CCCCCCCCC(=O)OC(CC(=O)[O-])C[N+](C)(C)C (configuration not stated) [nonanoylcarnitine]
0.8	NCCCCNCCCN [spermidine]
1.1	CN1CCCC1c1cccnc1 (configuration not stated) [nicotine]
5	CCCC(=O)OC(CC(=O)[O-])C[N+](C)(C)C (configuration not stated) [butyrylcarnitine]
4.7	NCc1[nH]cc(CCC(=O)O)c1CC(=O)O [porphobilinogen]
3.6	CCC(=O)OC(CC(=O)[O-])C[N+](C)(C)C (configuration not stated) [propionylcarnitine]
0.9	NC(=O)CCC(N)C(=O)O (configuration not stated) [glutamine]
1	Nc1ncnc2c1ncn2C1OC2COP(=O)(O)OC2C1O (configuration not stated) [cyclic AMP]
1.1	Cc1ncc(C=O)c(CO)c1O [pyridoxal  isomer]
9.2	CC(CCC(=O)O)C1CCC2C3C(O)CC4CC(O)CCC4(C)C3CC(O)C12C (configuration not stated) [cholic acid]
1.1	NC(Cc1ccc(O)cc1)C(=O)O (configuration not stated) [tyrosine]
5.7	Cc1cc2nc3c(=O)[nH]c(=O)nc-3n(CC(O)C(O)C(O)CO)c2cc1C (configuration not stated) [riboflavin]
0.8	NCCc1cnc[nH]1 [histamine]
7	O=C(O)CNC(=O)C=Cc1ccccc1 [cinnamoylglycine]
0.9	NC(N)=NCC(=O)O [guanidoacetic acid]
6.3	O=C(O)CNC(=O)C1=CCCCC1 [tetrahydrohippuric acid]
0.9	O=C(O)C(O)C(O)C(O)C(O)CO (configuration not stated) [gluconic acid]
6.6	CCCCCC(=O)OC(CC(=O)[O-])C[N+](C)(C)C (configuration not stated) [hexanoylcarnitine]
1	C[N+]1(C)CCCC1C(=O)[O-] (configuration not stated) [stachydrine (proline betaine)]
1.1	O=C(O)C1CCCN1 (configuration not stated) [proline]
